No end group written: not given here.
target: T1, purified VDAC1 (Homo sapiens, UniProt P21796); assay: Glass-bound peptide array probed with purified VDAC1 and anti-VDAC1 antibodies; type: binding; parameters: key: +: low; ++: medium; +++: high; conditions: glass-bound peptide array incubated 4 h with purified VDAC1 (64 nM); antibody against VDAC1 N-terminus; chemiluminescence
Experimental: A customized peptide array was produced by INTAVIS Peptide Services (GmbH & Co. KG, Tübingen, Germany). It comprised 768 peptide sequences derived from 19 VDAC1-interacting proteins that were arrayed on a glass slide. Each peptide was composed of 25 amino acids with an overlap of 15 amino acids with the peptides before and following it.
The interaction of purified VDAC1 with glass-bound peptide arrays was assessed by washing the slide three times, 10 min each, with TBST (150 mM NaCl, 50 mM Tris/HCl, pH 7.4, 0.1% Tween-20), followed by overnight incubation with blocking buffer (TBS, pH 7.8, containing low-fat dry milk, 2.5%, w/v) at 4 °C. Then slides were incubated with purified VDAC1 in protein-interacting buffer (20 mM HEPES, 100 mM KCl, pH,7.4, PBS) for 4 h at room temperature (RT). After washing, with TBST, slides were incubated overnight at 4 °C with anti-VDAC1 antibody against a sequence of 150–250 amino acids or against the VDAC1-N-terminus. Slides were then washed with TBST, followed by the appropriate secondary anti-HRP conjugated antibody for 2 h at RT. They were washed again with TBST and developed using enhanced chemiluminescence EZ-ECL (Biological Industries), according to the manufacturer’s instructions. The signal was captured in the dark using FUSION-FX (Vilber Lourmat) software.

T1 sequence (P21796 whole entry, species assumed): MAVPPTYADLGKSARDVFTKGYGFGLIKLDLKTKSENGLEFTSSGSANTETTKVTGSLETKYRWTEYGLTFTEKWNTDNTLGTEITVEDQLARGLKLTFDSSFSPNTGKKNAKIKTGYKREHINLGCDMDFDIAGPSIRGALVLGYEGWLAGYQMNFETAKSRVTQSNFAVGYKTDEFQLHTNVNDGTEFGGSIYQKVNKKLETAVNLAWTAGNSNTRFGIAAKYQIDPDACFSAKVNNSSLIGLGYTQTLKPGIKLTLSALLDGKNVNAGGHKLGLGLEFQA

| Spot intensity, detected using anti-N-terminus VDAC1 | Sequence |
| --- | --- |
| +++ | TKVPELIRTIMGWTLDFLRERLLGW [1B10, array peptide from BAX] |
| + | SSWTRVFQSWWDRNLGRGSSAPSQ [1A17, array peptide from BAD] |
| + | IEIESFYEGEDFSETLTRAKFEELN [2L4, array peptide from BiP1] |
| +++ | FPTQALNFAFKDKYKQIFLGGVDKH [1F21, array peptide from ANT3] |
| +++ | GNLANVIRYFPTQALNFAFKDKYKQ [1F20, array peptide from ANT3] |
| ++ | IFVGIKKKEERADLIAYLKKATNE [1D15, array peptide from cytochrome c] |
| +++ | VGKSGTEREFRGLGDCLVKITKSDG [1G4, array peptide from ANT3] |
| ++ | STRIQQQLGQLTLENLQMLPESEDE [2G1] |
| +++ | EQGVLSFWRGNLANVIRYFPTQALN [1F19, array peptide from ANT3] |
| + | ITATQKTVDGPSGKLWRDGRGALQN [2C10, array peptide from GAPDH1] |
| + | KTGPNLHGLFGRKTGQAPGYSYTAA [1D9, array peptide from cytochrome c] |
| ++ | QVSVLPEGGETPLFKQFFKNWRDPD [2H20, array peptide from gelsolin isoform b] |
| ++ | SVKRVTQDPKLQMGKKLPLHLTLPQ [1N4, array peptide from CD4] |
| + | AVIGGSAGASPPSTLTPDSRRVARP [2D10, array peptide from Mcl-1] |
| ++ | PLAESITDVLVRTKRDWLVKQRGWD [2E12, array peptide from Mcl-1] |
| +++ | IMGWTLDFLRERLLGWIQDQGGWGL [1B11, array peptide from BAX] |
| +++ | AVDTDSPREVFFRVAADMFSDGNFN [1B5, array peptide from BAX] |
| ++ | SNTTAIAEAWARLDHKFDLMYAKRA [2B6, array peptide from tubulin alpha 1b] |
| + | TPVQSRVVQGKEPAHLMSLFGGKPM [2I12, array peptide from gelsolin isoform b] |
| + | KCELSSSVQTDINLPYLTMDSSGPK [2O6, array peptide from HSP-70] |
| +++ | AIYDICRRNLDIERPTYTNLNRLIS [2A11, array peptide from tubulin alpha 1b] |
| + | DQCTGLQGFLVFHSFGGGTGSGFTS [2A2, array peptide from tubulin alpha 1b] |
| +++ | RERLLGWIQDQGGWGLPLAESLKRL [1B12, array peptide from BAX] |
| + | FRDEGGKAFFKGAWSNVLRGMGGAF [1G17, array peptide from ANT3] |

same assay, conditions: glass-bound peptide array incubated 4 h with purified VDAC1 (64 nM); antibody against VDAC1 amino acids 150-250; chemiluminescence

| Spot intensity, detected using anti-VDAC1 internal sequence | Sequence |
| --- | --- |
| ++ | IEIESFYEGEDFSETLTRAKFEELN [2L4, array peptide from BiP1] |
| + | GNLANVIRYFPTQALNFAFKDKYKQ [1F20, array peptide from ANT3] |
| + | IFVGIKKKEERADLIAYLKKATNE [1D15, array peptide from cytochrome c] |
| ++ | AAAATTVAWYQVSPLAARLLYPYLA [1H10, array peptide from TSPO] |
| + | EQGVLSFWRGNLANVIRYFPTQALN [1F19, array peptide from ANT3] |
| ++ | LDIERPTYTNLNRLISQIVSSITAS [2A12, array peptide from tubulin alpha 1b] |
| ++ | QLTLENLQMLPESEDEESYDTESEF [2G2] |
| + | AIYDICRRNLDIERPTYTNLNRLIS [2A11, array peptide from tubulin alpha 1b] |
| + | RERLLGWIQDQGGWGLPLAESLKRL [1B12, array peptide from BAX] |
| +++ | HVAENPSIQLLEGNPGPPADPDGGP [1L14, array peptide from MAVS] |

target: T1, purified VDAC1; assay: Microscale thermophoresis (MST); type: binding; conditions: not given
Experimental: MST analysis was performed using a NanoTemper Monolith NT.115 apparatus as described previously. Briefly, purified VDAC1 was fluorescently labeled using a NanoTemper Protein labeling kit BLUE (L001, NanoTemper Technologies, Munich, Germany). A constant concentration of the protein (66 nM) was incubated with different concentrations of the indicated peptide in MST binding buffer (10 mM tricine-HCl, 100 mM NaCl, pH = 7.4) for 30 min at 37 °C in the dark. Afterwards, 3–5 µl of the samples were loaded into a monolith glass capillary (NanoTemper) and a thermophoresis analysis was performed (LED 80%, IR laser 80%).

| Sequence | Kd [µM] |
| --- | --- |
| MVVEHPEFLKAGKEPGLQIWRVEKFRQIKIWFQNRRMKWKK [2G8-Antp] | 5 |

same assay, conditions: fluorescently labeled VDAC1 66 nM, peptide 2.5-30 µM, 30 min at 37 °C; read-out: Kd

| Kd [µM] | Sequence |
| --- | --- |
| 8 | NEFGYSNRVVDLMAHMASKE [2D1] |

— paper PMC12669278, “VDAC1-interacting proteins: binding site mapping and their derived peptides induce apoptosis and multifaceted cellular effects” (Apoptosis, 2025)
